In publication PMC7906907, “Targeting STAT3 by a small molecule suppresses pancreatic cancer progression” (Oncogene, 2021):
Values joined by “and” are separate entries in the source; they are usually repeats but may differ in a detail not shown here. Equal entries are not always repeated.

Key:
[1] = tested on: STAT3 Tyr705 phosphorylation; test: Western blot of STAT3 activation in pancreatic cancer cells; type: cell-based
Procedure: Fig. 2 N4 inhibits STAT3 activation in pancreatic cancer cells. A PANC-1, CAPAN-2, and BXPC-3 cells were treated with the indicated concentrations of N4 for 24 h. Then, p-STAT3 (Y705), p-STAT3 (S727), and STAT3 were detected by western blot assays with glyceraldehyde 3-phosphate dehydrogenase (GAPDH) used as the loading control. B Pancreatic cancer cells were starved in a medium lacking fetal bovine serum (FBS; basic medium) for 24 h, and then pretreated with N4 in basic medium for 24 h. Then, stimulated with IL-6 (20 ng/mL) for 30 min and lysed for western blot analysis using the indicated antibodies. C Expression levels of STAT3 downstream genes were detected by western blot following treatment of PANC-1 and CAPAN-2 cells with N4. D PANC-1 cells were seeded and allowed to attach, and then pretreated with 2 μM of N4 in FBS-free medium for 24 h. The cells were stimulated for 30 min using IL-6 (20 ng/mL). The STAT3 antibody (green) and 4, 6-diamidino-2-phenylindole (DAPI) (blue) was used for staining and STAT3 and the nucleus, respectively. The samples were photographed and analyzed. The scale bar represents 20 μm. E After 24 h treatment with 2 μM N4, PANC-1 cells were stimulated with IL-6 (20 ng/mL) for 30 min, and the cytoplasmic and nuclear extractions were analyzed by western blot. p-STAT3 (Y705) was used to detect STAT3, and GAPDH and H3 were used as the cytoplasm and nucleus internal control, respectively.
(§1) Western blotting was performed as previously described. Briefly, cells were treated with indicated compounds and then lysed by boiling. […]

[2] = biological target: T1, STAT3-NF-κB complex (Homo sapiens, UniProt P40763); test: Co-immunoprecipitation, STAT3-NF-κB interaction; type: cell-based; details: PANC-1 cells, 2 μM, 24 h
T1 construct: endogenous in cells; host or cells: PANC-1
From the text: Fig. 3 N4 interacts with the STAT3-SH2 domain and interferes with the STAT3-EGFR and STAT3-NF-κB interactions. […] C–E The binding between N4 and STAT3 was examined in (C) SPR and (D) MST experiments. His-STAT3^127-722 protein was purified and used to examine the affinity between STAT3 and N4. (E) The binding between N4 and STAT3^SH2 was confirmed in MST assays. STAT3-SH2 protein was purified and labeled. N4 was serially diluted and mixed with equal volumes of labeled STAT3^SH2 protein. The MST signal was measured, and the data were analyzed by MO analysis software. F, G The FLAG-tag and HA-tag STAT3 expression plasmid was transfected into 293 T cells, followed by the addition of the indicated concentrations of N4. After 24 h, cells were lysed, and immunoprecipitation experiments were performed as described in Materials and Methods. H N4 represses STAT3 dimerization in pancreatic cancer cells. I After a 24 h treatment with 2 μM N4, pancreatic cancer cells were stimulated with IL-6 for 30 min. Cell lysates were immunoprecipitated with STAT3 overnight. The precipitates were washed, suspended in non-reducing sample buffer, and boiled for 10 min. The indicated antibodies were used for western blot assays. […]
Co-IP was performed as previously described. […] After overnight incubation, the precipitates were washed and analyzed using western blotting.

[3] = tested on: Pan02 cells; test: EMT markers by immunofluorescence and western blot; type: cell-based; details: IF and WB, 24 h
Procedure: Fig. 8 N4 reverses EMT phenotype and shapes the microenvironment of PDAC. A IF staining was performed to detected the level of E-cadherin (red) and vimentin (green) after PAN02 treatment with the indicated concentrations of N4 for 24 h. DAPI (blue) was used to stain Nuclei. Scale bar, 20 μm. B Western blot assays were used to examine the expression of E-cadherin, N-cadherin and vimentin after PAN02 treatment with N4 for 24 h. C IHC of vimentin, F4/80 and α-SMA in tumor tissue from orthotopic models. Data represents the mean ± SD; *P < 0.05, **P < 0.01, ***P < 0.001, ****P < 0.0001, n.s. not significant by one-way ANOVA followed by multiple-comparison tests. D Quantification of vimentin, F4/80 and α-SMA in pancreatic tumors from PDAC. Scale bar, 50 μm.
as §1
Immunofluorescence staining was performed as previously described. […] Images were recorded by confocal microscopy (Leica).

[4] = biological target: His-STAT3^127-722 protein (Homo sapiens, UniProt P40763); test: Fluorescence polarization (FP) assay, STAT3-phosphopeptide interaction; type: binding; parameters: We purified amino acids 127–722 of the STAT3 protein for this assay; made in house; details: N4 pre-incubated with STAT3 protein 1 h, then 10 nM labeled peptide 1 h; read-out: IC50, block of the STAT3-peptide interaction
Procedure: A Purified STAT3 protein was incubated with labeled phosphopeptide, 5-carboxyfluorescein-GpYLPQTV-NH2 for 1 h at 37 °C. FP signals were measured, and the data were analyzed using Graph Pad 7.0 software. […] C Different concentrations of N4 were pre-incubated with recombined STAT3 protein for 1 h, then 10 nM of labeled peptide was added for 1 h. The IC50 was calculated using Graph Pad 7.0.
The labeled phosphopeptide: 5-carboxyfluorescein-GpYLPQTV-NH2 (where pY represents phospho-Tyr) was used as the STAT3 binding probe. To evaluate the effect of compounds in inhibiting STAT3-peptide interaction, serial dilutions of the STAT3 competitors were prepared. The diluted compounds were added to the reaction mixture in 100 μl of FP buffer (50 mM HEPES, pH 7.5, 150 mM NaCl, 0.1% NP-40, and 1 mM dithiothreitol) containing 500 nM his-STAT3^127–722 protein for pre-incubation at 37 °C for 1 h. Then, 10 nM of the labeled peptide was added and incubated for 1 h. After incubation, FP was measured on a Cytation^TM 5 cell imaging multi-mode Reader (BioTek) using excitation and emission wavelengths of 480 nm and 535 nm, respectively. Each reaction was repeated two or three times. Binding or competitive parameters were calculated from a nonlinear regression using GraphPad Prism 7.0.

[5] = PANC-1, CAPAN-2, BXPC-3 cells, 24 h

Sequence of His-STAT3^127-722 protein (P40763 127-722): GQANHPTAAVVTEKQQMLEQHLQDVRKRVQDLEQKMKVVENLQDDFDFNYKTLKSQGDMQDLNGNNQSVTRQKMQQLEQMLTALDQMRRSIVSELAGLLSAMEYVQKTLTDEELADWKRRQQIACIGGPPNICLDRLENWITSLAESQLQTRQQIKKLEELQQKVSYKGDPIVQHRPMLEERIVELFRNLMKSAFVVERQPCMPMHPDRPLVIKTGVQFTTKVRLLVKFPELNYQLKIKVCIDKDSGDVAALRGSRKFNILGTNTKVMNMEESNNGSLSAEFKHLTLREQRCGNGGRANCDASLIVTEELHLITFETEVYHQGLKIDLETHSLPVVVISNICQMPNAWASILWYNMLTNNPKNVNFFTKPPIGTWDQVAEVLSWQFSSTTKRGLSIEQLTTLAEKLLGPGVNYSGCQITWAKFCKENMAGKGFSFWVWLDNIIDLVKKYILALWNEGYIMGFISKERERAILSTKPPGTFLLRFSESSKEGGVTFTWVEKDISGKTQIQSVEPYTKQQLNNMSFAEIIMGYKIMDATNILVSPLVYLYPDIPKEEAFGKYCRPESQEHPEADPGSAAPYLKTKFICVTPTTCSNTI
T1 sequence (P40763 2-770 limits assumed, one chain of several): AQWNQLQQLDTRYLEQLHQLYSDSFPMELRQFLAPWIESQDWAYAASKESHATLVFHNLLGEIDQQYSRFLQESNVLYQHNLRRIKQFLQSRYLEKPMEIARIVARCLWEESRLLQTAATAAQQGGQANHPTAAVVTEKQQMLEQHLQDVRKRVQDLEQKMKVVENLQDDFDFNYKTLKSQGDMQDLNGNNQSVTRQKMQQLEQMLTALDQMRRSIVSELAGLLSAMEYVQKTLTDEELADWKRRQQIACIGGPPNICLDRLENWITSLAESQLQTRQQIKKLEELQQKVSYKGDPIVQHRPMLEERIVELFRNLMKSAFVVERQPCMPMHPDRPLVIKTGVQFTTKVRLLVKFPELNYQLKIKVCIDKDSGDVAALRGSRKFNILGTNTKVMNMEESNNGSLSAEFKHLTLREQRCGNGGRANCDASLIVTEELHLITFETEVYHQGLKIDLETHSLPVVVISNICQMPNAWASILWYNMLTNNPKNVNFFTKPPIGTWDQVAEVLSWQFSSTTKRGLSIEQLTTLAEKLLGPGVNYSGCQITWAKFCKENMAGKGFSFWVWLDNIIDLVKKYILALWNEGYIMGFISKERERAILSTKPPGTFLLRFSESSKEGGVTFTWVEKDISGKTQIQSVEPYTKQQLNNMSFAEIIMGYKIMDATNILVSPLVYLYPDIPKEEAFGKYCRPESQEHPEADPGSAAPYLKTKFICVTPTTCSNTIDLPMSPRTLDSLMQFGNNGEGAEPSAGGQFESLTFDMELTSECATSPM

COc1cc2c(cc1C(=O)Nc1cccc3cccnc13)CCC1C(C)(C)C(=O)C(C#N)=C[C@]21C (stereo partly drawn) [N4]
STAT3 Tyr705 phosphorylation [1, 5]: selectively blocked
Ser-727 phosphorylation and STAT3 protein expression [1, 5]: no obvious inhibition
SHP2 (PTPase), p-STAT1, p-STAT5, p-extracellular signal-regulated kinase, and p-AKT levels ([1]; western blots): no obvious influence
interaction between STAT3 and NF-κB [2]: blocked
epithelial and mesenchymal markers [3]: upregulation of E-cadherin, and downregulation of N-cadherin and vimentin
IC50 [4]: 570 nM and 568 nM
